Consider 8 molecules from US9732088B2, “C2-carbocyclic iminothiazine dioxides as BACE inhibitors, compositions, and their use” (Merck Sharp & Dohme Corp., priority 2014, dated 2017).

The target of series [1] is rat Mdr1a (P-gp) (Rattus norvegicus, UniProt Q6PSM0). Kind of series: P-Glycoprotein (P-gp) Efflux Susceptibility Assay. In kind it is in vitro ADME. The note with it: LLC-PK1, pH 7.4; rat LLC-Mdr1a cells, B-A/A-B Papp ratio at 3 h; method 0.1 μM; read-out: P-gp efflux assay (rMDR1a BAAB). On the procedure:
Assay 6: P-Glycoprotein (P-Gp) Efflux Susceptibility Assay
As P-gp is expressed at the blood-brain-barrier, among other tissues, lower P-gp efflux ratio values are associated with a better ability to cross the blood-brain-barrier to reach the site of BACE-1 expression in the central nervous system. P-gp efflux ratios are measured in cellular assays using cell lines that express P-gp from a number of species including rat, monkey, and human. The following assay was used to measure the rat P-gp efflux ratios, which are believed to be the most sensitive measure of P-gp susceptibility, for the compounds of the invention (test compounds) reported in the tables below.
The bidirectional transport of test compounds was conducted across pig kidney epithelial (LLC-PK1) cell monolayers. Native LLC-PK1 cells were obtained from The Netherlands Cancer Institute (Amsterdam, The Netherlands), and used under a license agreement. LLC-PK1 cells expressing a cDNA encoding rat Mdr1a (rat LLC-Mdr1a) were made in-house by stable transfection of LLC-PK1 cells with a rat MDR1 cDNA. LLC-PK1 and rat LLC-Mdr1a cell lines were cultured in 96-well transwell culture plates. […] Substrate solution (150 μL) was added to either the apical (A) or the basolateral (B) compartment of the culture plate, and buffer (150 μL; HBSS, 10 mM HEPES, pH 7.4) was added to the compartment opposite to that containing the compound. At t=3 h, 50 μL samples were removed from both sides of monolayers dosed with test compound and placed in 96 well plates, internal standard (50 μL 1 μM labetolol) was added to the samples. Samples were analyzed by LC/MS/MS using an Applied Biosystems SCIEX API 5000 triple quadruple mass spectrometry (Concord, ON, Canada) with a TurbolonSpray ion source in the positive ion mode. A Thermo Scientific Transcend LX-2 system (Franklin, Mass.) was coupled to the API 5000 with a flow rate of 800 μL/min to direct sample into the mass spectrometer. A Waters ACQUITY UPLC T3 (2×30 mm, 1.7 μm; Milford, Mass.) column was used for sample analysis. Mobile phase A consisted of 0.1% formic acid in water. Mobile phase B was acetonitrile with 0.1% formic acid. A gradient elution program was utilized where the solvent composition was held at 5% B for 0.25 min, changed from 5% B to 95% B at 0.25 min, and followed by holding at 95% B for 0.5 min, then, went back to 5% B at 0.75 min. The column was then re-equilibrated at the original solvent composition for 0.5 min. Mass spectrometric detection was accomplished by multiple reaction monitoring (MRM) of transitions unique to each compound. Sample concentration was obtained by extrapolation from the standard curve. Verapamil (1 μM) was used as the positive control to assess the functional activity of Pgp. The experiment was performed in triplicate.
The Papp was calculated by the following formula for samples taken at t=3 h:
[formula] where “Volume of Receptor Chamber” is 0.15 mL, “Area of membrane” is 0.11 cm^2, the “Initial Concentration” is the sum of the concentration measured in the donor compartment plus the concentration measured in the receiver compartment at t=3 h, “Δ in Concentration” is the concentration in the receiver compartment at 3 h, and “Δ in Time” is the incubation time (3×60×60=10800 s). Papp was expressed as 10^−6 cm/s.
The Papp reported in the table below is the average of the Papp for transport from A to B and Papp for transport from B to A at t=3 hr.
The B-A/A-B ratio (BAAB) was calculated by dividing the Papp from B to A by the Papp from A to B at t=3 h: […]

Series [2] concerns the target soluble human BACE-1 catalytic domain (Homo sapiens (Human), UniProt P56817). The series can be described thus: BACE-1 Ki Assay (BACE-1 HTRF FRET Assay). The following applies: Assay 1; Ki calculated from IC50 by Cheng-Prusoff. In kind it is biochemical. Put shortly: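 Recombinant human BACE-1 catalytic domain (3 nM in 10 μl) preincubated with inhibitor 30 min at 30° C, pH 5.0 acetate buffer with 7.5% DMSO, then 200 nM final QSY7-APPswe-Eu substrate for 1.5 h; 620 nm time-resolved fluorescence read. IC50 from nonlinear regression converted to Ki by Cheng-Prusoff using Km 8 μM.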

Sequence of rat Mdr1a (P-gp) (Q6PSM0 1-1272): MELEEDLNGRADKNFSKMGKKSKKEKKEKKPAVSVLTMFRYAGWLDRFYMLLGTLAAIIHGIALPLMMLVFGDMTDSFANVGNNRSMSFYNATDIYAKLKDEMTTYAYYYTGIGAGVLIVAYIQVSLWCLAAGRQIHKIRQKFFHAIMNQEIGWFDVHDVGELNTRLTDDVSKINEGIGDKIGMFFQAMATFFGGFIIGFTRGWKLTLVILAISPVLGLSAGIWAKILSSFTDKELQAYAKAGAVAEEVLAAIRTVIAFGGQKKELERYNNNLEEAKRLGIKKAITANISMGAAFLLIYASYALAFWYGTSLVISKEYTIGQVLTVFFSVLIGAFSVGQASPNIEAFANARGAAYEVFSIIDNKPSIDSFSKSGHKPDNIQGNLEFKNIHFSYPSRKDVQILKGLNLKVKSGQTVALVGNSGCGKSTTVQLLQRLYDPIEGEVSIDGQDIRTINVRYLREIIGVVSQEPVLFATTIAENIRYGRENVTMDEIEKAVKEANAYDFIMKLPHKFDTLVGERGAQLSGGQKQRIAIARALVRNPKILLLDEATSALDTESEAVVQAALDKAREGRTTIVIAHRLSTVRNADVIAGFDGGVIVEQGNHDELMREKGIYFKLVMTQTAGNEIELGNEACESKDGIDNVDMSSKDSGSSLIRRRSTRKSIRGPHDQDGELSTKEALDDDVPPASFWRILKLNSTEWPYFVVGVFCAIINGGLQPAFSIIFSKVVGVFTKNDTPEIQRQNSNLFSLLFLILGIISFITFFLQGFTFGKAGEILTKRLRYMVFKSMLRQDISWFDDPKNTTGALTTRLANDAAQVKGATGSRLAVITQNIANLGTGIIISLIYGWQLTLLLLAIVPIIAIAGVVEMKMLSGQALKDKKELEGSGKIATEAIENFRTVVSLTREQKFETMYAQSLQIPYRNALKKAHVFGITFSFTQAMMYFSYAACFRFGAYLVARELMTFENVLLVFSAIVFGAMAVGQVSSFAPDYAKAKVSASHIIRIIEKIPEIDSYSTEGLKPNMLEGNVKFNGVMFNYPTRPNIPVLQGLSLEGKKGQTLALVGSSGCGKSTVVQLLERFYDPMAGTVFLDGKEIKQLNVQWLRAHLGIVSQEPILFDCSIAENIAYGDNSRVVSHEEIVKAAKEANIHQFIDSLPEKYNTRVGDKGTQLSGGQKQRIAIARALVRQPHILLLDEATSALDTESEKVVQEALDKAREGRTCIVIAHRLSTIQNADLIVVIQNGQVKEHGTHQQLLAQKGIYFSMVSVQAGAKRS
Sequence of soluble human BACE-1 catalytic domain (P56817 75-416): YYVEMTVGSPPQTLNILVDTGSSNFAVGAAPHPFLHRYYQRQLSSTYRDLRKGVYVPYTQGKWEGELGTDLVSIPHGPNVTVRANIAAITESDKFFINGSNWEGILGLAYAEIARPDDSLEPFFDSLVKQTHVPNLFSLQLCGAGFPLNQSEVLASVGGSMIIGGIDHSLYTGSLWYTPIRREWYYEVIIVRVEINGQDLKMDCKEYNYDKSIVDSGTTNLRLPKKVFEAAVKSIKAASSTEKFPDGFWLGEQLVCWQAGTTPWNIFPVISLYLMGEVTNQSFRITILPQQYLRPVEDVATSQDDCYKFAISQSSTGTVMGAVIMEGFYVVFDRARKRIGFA

Broadly, the Ki is a dissociation constant, usually derived from enzyme kinetics or from competition with a known ligand. Turning to `COc1cnc2c(Nc3ccc(F)c([C@]4(C)CS(=O)(=O)C(C)(C)C(N)=N4)c3)nccc2n1` [Ex 47 of WO2014059185, reference compound], in series [1], the efflux ratio at 3 h was 7.9. Also, the inhibition constant Ki in series [2] is 3.3 nM.

Regarding `C[C@@]1(c2nc(Nc3nccc4cc(C#N)cnc34)ncc2F)CS(=O)(=O)[C@@](C)(C2CC2)C(N)=N1` [Example 5, 8-({4-[(3R,6S)-6-cyclopropyl-5-imino-3,6-dimethyl-1,1-dioxidothiomorpholin-3-yl]-5-fluoropyrimidin-2-yl}amino)-1,7-naphthyridine-3-carbonitrile], the efflux ratio at 3 h in series [1] is 31. Besides, in series [2], the Ki is 8.7 nM.

Regarding `COc1cnc2c(Nc3cc([C@]4(C)CS(=O)(=O)[C@@](C)(C5CC5)C(N)=N4)c(F)cn3)nccc2c1` [Example 6, N-{4-[(3R,6S)-6-cyclopropyl-5-imino-3,6-dimethyl-1,1-dioxidothiomorpholin-3-yl]-5-fluoropyridin-2-yl}-3-methoxy-1,7-naphthyridin-8-amine], the efflux ratio at 3 h in series [1] came out at 1.5. Besides, the Ki in series [2] is 2.6 nM.

In the case of `COc1cnc2c(Nc3ccc(F)c([C@]4(C)CS(=O)(=O)[C@@](C)(C5CC5)C(N)=N4)c3)nccc2c1` [Example 14, N-{3-[(3R,6S)-6-cyclopropyl-5-imino-3,6-dimethyl-1,1-dioxidothiomorpholin-3-yl]-4-fluorophenyl}-3-methoxy-1,7-naphthyridin-8-amine], the efflux ratio at 3 h in series [1] was determined as 2.9. Moreover, the Ki in series [2] is 9.3 nM.

On to `C[C@@]1(c2cc(Nc3ncnc4cc(C#N)cnc34)ccc2F)CS(=O)(=O)[C@@](C)(C2CC2)C(N)=N1` [Example 16, 4-({3-[(3R,6S)-6-cyclopropyl-5-imino-3,6-dimethyl-1,1-dioxidothiomorpholin-3-yl]-4-fluorophenyl}amino)pyrido[3,2-d]pyrimidine-7-carbonitrile], for which the efflux ratio at 3 h in series [1] was 31. The Ki in series [2] is 2.2 nM.

As for `C[C@@]1(c2cc(Nc3nccc4cc(C#N)cnc34)ccc2F)CS(=O)(=O)[C@@](C)(C2CC2)C(N)=N1` [Example 18, 8-({3-[(3R,6S)-6-cyclopropyl-5-imino-3,6-dimethyl-1,1-dioxidothiomorpholin-3-yl]-4-fluorophenyl}amino)-1,7-naphthyridine-3-carbonitrile], the efflux ratio at 3 h in series [1] worked out at 11. Besides, in series [2], the Ki was 1.6 nM.

For the molecule `COc1cnc2c(Nc3ccc(F)c([C@]4(C)CS(=O)(=O)[C@@](C)(C5CC5)C(N)=N4)c3)ncnc2n1` [Example 22, (2S,5R)-2-cyclopropyl-5-(2-fluoro-5-((7-methoxypteridin-4-yl)amino)phenyl)-3-imino-2,5-dimethylthiomorpholine 1,1-dioxide], the efflux ratio at 3 h in series [1] is 26. Further, the Ki in series [2] is 14 nM.

With `CC1(C)C(=N)N[C@](C)(c2cc(Nc3noc4cc(F)cnc34)ccc2F)CS1(=O)=O` [WO′426 Ex. 30b, reference compound], the Ki in series [2] is 19.2 nM.
